Results: publication PMC4786259 (PLoS ONE, 2016)
“Also recorded” adds a separate entry of the source.

Key:
[1] = target: T1, 5-HT1A (Homo sapiens, UniProt P08908); assay: PDSP radioligand competition binding; conditions: radioligand [^3H]WAY100635; read-out: In Vitro Affinity
T1 construct: expressed in transfected cells
T1 sequence (P08908 1-422): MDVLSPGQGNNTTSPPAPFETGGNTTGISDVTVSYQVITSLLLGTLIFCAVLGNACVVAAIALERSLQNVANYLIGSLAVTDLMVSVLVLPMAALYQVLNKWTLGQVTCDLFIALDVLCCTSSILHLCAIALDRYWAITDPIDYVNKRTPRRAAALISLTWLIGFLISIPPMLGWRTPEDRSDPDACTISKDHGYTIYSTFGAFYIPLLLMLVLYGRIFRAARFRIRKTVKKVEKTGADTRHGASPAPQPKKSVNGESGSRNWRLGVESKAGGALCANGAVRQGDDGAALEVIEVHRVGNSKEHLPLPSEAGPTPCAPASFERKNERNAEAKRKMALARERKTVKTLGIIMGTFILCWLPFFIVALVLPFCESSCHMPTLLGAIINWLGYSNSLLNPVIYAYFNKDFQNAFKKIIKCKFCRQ

[2] = target: T2, 5-HT2B (Homo sapiens, UniProt P41595); assay: PDSP radioligand competition binding; conditions: radioligand [^3H]LSD; read-out: In Vitro Affinity
T2 construct: expressed in transfected cells

[3] = target: T3, 5-HT6 (Homo sapiens, UniProt P50406); assay: PDSP radioligand competition binding; conditions: radioligand [^3H]LSD; read-out: In Vitro Affinity
T3 construct: expressed in transfected cells

[4] = target: T4, D4 (Homo sapiens, UniProt P21917); assay: PDSP radioligand competition binding; conditions: radioligand [^3H]N-methyl Spiperone; read-out: In Vitro Affinity
T4 construct: expressed in transfected cells
T4 sequence (P21917 1-419): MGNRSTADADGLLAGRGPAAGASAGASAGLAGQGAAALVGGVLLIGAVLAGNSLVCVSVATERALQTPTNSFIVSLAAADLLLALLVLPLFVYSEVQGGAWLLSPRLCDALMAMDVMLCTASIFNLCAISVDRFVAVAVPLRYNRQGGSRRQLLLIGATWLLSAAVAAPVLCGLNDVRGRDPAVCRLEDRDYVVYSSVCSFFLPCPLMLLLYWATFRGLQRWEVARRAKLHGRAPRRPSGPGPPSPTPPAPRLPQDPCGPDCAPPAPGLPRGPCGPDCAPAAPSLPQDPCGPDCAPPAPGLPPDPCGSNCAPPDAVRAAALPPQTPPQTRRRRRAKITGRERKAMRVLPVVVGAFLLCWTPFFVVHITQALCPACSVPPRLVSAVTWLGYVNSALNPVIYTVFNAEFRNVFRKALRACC

[5] = target: α1A (Homo sapiens, UniProt P35348); assay: PDSP radioligand competition binding; conditions: radioligand [^3H]Prazosin; read-out: In vitro Affinity
[6] = target: α1B (Homo sapiens, UniProt P35368); assay: PDSP radioligand competition binding; conditions: radioligand [^3H]Prazosin; read-out: In vitro Affinity
[7] = target: β1-AR (Homo sapiens, UniProt P08588); assay: PDSP radioligand competition binding; conditions: radioligand [^3H]CGP12177; read-out: In vitro Affinity
[8] = target: H2 (Homo sapiens, UniProt P25021); assay: PDSP radioligand competition binding; conditions: radioligand [^3H]Cimetidine; read-out: In vitro Affinity
[9] = target: V1A (Homo sapiens, UniProt P37288); assay: PDSP radioligand competition binding; conditions: radioligand [^3H]Vasopressin; read-out: In vitro Affinity
[10] = target: D5 (Homo sapiens, UniProt P21918); assay: PDSP receptor functional assay; assay type: cell-based
[11] = target: T5, 5-HT7 (Homo sapiens, UniProt P34969); assay: PDSP receptor functional assay; assay type: cell-based
T5 construct: expressed in transfected cells

[12] = target: T6, hVMAT2 (Homo sapiens, UniProt Q05940); assay: Vesicular 3H-DA uptake in vesicles isolated from HEK cells overexpressing VMAT2; assay type: biochemical
T6 construct: expressed in transfected cells; pcDNA3.1 construct with zeocin resistance

[13] = tested on: male C57BL/6J mice; assay: DOI-induced head-twitch response; assay type: in vivo
[14] = tested on: male B6129 hybrid mice; assay: Clozapine drug discrimination (substitution); assay type: in vivo
Description: Adult male B6129 hybrid mice (n = 12) were trained to respond under a FR10 schedule and were reinforced by presentation of sweetened milk as described previously. The drug and vehicle lever positions were counterbalanced between groups to control for olfactory cues. All injections were given subcutaneously with a pre-session injection time of 30 minutes. Training occurred on a double alternation injection schedule with two days of VEH followed by two days of CLZ and repeated (VEH, VEH, CLZ, CLZ, VEH, VEH etc.). In order for a mouse to pass a training day it had to meet three criteria: (1) complete the first fixed ratio (FR) on the condition-appropriate lever, (2) at least 80% of the total responses were made on the condition-appropriate lever, and (3) at least 10 responses per minute were made during the session. Drug testing was conducted approximately two times per week with at least two training days in between. To be eligible for testing, mice were required to pass both a drug and vehicle training day consecutively. […] Responses on both levers were reinforced.
A p<0.05 was considered significant.

[15] = tested on: C57BL/6J mice; assay: Prepulse inhibition, PCP-disrupted; assay type: in vivo
[16] = tested on: mice; assay: Prepulse inhibition, pharmacological model using amphetamine; assay type: in vivo; conditions: data not shown
[17] = rats; cited from earlier work
[18] = tested on: rats; parameters: method as in PMID 100809; conditions: dose range 25–100 mg/kg; cited from earlier work
[19] = tested on: male C57BL/6J mice; assay: Catalepsy, inclined screen test; conditions: for latency to movement: nuciferine 10.0 mg/kg i.p.
[20] = target: hDAT (Homo sapiens, UniProt Q01959); assay: Whole cell 3H-dopamine uptake in HEK-DAT cells
Sequence of hDAT (Q01959 whole entry): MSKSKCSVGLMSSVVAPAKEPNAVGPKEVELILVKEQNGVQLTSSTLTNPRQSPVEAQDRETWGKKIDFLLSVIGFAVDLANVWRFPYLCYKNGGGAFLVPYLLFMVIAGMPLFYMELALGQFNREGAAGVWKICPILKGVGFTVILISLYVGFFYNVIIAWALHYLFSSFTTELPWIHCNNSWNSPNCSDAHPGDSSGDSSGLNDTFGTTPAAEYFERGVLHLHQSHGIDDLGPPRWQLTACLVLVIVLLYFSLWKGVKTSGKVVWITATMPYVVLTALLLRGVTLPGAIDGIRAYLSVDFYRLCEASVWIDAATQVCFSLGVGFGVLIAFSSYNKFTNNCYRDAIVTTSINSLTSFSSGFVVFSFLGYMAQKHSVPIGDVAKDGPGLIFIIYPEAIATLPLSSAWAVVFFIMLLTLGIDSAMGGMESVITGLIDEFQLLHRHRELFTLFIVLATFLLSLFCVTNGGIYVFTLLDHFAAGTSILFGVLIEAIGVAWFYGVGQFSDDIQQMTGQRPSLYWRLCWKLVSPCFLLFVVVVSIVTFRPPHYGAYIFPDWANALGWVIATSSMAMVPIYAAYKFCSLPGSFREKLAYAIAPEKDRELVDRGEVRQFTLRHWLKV
Description: Cell culture: HEK293 cells (ATCC) lines stably expressing hDAT or hDAT and hVMAT2 constructs were cultured at 37°C and 5% CO2 in DMEM with 10% FBS.
Whole cell ^3H-dopamine (DA) uptake: Cells were plated into 48-well plates one day before uptake was performed. […] After incubation, 25 μl uptake buffer containing ^3H-DA and DA was added for a final concentration of 20 nM ^3H-DA and 1 μM DA. Cells were incubated at 37°C for 20 minutes or for the time indicated. Nonspecific uptake was determined in the presence of 10 μM nomifensine. Uptake was terminated by aspirating uptake buffer and washing each well twice with 0.5 ml ice-cold uptake buffer. Cells were lysed in 0.1 N NaOH and transferred to vials containing 3 ml scintillation cocktail. Radioactivity was quantitated using a Beckman LS6500 counter. Data were analyzed in Graph Pad Prism 5.0.

T5 sequence (P34969 whole entry, species assumed): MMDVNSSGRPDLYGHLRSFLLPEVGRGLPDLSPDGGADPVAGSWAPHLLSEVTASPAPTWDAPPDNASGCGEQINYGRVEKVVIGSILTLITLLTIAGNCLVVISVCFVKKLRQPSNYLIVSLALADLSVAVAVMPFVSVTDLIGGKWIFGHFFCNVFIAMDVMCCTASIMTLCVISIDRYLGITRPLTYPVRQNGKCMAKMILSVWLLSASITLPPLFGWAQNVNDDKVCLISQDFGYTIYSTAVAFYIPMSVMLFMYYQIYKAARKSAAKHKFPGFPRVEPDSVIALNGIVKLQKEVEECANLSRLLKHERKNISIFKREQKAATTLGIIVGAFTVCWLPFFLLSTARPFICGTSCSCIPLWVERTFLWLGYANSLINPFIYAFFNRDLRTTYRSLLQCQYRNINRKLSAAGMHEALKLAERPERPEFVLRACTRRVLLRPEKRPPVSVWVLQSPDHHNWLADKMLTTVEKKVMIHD
Sequence of D5 (P21918 whole entry, looked up): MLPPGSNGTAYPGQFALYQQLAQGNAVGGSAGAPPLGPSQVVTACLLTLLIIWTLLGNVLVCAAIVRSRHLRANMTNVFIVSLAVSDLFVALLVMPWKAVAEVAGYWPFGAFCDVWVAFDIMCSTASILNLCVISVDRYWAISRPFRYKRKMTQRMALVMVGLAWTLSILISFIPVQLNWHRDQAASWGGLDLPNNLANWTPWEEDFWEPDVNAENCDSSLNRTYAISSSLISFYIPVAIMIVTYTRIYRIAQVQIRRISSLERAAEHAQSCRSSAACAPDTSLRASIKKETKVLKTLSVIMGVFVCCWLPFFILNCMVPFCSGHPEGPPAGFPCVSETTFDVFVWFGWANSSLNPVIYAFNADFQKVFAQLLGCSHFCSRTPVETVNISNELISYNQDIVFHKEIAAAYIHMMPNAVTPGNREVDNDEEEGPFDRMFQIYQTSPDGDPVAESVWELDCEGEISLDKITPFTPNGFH
Sequence of α1B (P35368 whole entry): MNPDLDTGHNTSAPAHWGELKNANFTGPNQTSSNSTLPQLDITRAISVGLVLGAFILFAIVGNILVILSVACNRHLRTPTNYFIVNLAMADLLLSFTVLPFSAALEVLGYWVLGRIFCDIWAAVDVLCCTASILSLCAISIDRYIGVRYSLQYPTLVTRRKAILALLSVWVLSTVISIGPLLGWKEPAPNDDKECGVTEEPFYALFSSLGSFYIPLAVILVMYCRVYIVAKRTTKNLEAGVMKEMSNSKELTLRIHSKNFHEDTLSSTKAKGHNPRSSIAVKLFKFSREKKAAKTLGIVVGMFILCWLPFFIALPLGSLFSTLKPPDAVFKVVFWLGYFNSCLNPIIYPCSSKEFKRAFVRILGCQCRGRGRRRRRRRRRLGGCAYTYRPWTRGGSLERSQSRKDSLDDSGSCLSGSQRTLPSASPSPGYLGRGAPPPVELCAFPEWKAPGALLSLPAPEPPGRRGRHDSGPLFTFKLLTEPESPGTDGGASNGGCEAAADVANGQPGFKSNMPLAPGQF
Sequence of α1A (P35348 whole entry): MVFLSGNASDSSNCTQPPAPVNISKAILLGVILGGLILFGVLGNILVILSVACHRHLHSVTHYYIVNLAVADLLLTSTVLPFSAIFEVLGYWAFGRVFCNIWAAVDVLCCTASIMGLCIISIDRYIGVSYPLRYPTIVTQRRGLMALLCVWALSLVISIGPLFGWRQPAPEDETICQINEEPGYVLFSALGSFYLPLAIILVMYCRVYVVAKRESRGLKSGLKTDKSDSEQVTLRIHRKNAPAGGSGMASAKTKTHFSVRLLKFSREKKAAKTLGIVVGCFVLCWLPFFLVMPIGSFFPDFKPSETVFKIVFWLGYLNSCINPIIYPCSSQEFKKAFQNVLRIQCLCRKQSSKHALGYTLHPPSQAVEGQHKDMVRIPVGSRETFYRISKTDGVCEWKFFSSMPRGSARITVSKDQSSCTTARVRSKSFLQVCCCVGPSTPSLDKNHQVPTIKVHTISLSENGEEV
Sequence of β1-AR (P08588 whole entry): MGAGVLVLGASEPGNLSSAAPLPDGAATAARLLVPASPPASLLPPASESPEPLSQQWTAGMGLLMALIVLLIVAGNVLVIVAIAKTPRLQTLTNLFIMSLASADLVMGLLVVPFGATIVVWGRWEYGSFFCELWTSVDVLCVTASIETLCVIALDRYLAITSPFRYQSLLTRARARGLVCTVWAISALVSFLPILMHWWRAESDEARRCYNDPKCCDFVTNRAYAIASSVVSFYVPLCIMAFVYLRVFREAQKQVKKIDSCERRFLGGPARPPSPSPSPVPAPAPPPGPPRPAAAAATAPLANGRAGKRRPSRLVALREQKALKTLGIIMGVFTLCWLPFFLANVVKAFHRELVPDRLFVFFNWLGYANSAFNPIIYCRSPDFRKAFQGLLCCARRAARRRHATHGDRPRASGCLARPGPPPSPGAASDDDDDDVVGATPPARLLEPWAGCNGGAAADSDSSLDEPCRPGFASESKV
Sequence of V1A (P37288 whole entry): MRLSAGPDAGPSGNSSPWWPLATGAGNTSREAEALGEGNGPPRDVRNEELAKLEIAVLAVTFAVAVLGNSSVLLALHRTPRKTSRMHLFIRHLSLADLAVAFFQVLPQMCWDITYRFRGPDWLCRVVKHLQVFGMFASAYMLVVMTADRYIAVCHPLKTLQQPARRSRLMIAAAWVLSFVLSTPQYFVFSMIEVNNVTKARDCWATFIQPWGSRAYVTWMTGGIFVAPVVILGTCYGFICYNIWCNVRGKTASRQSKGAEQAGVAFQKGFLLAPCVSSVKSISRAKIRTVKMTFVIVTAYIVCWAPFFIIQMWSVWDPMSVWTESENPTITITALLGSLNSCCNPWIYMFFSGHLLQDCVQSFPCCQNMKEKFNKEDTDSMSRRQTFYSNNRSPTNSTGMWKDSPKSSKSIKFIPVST
Sequence of H2 (P25021 whole entry): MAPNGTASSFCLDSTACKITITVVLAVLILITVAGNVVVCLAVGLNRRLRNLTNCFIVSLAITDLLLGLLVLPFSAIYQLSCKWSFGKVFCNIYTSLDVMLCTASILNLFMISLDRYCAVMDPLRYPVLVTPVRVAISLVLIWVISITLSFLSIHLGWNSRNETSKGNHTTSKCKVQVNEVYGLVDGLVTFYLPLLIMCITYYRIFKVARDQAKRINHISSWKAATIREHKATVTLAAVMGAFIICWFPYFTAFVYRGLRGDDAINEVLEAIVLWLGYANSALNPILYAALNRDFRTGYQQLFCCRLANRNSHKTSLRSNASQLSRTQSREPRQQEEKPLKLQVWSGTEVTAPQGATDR
T2 sequence (P41595 whole entry, species assumed): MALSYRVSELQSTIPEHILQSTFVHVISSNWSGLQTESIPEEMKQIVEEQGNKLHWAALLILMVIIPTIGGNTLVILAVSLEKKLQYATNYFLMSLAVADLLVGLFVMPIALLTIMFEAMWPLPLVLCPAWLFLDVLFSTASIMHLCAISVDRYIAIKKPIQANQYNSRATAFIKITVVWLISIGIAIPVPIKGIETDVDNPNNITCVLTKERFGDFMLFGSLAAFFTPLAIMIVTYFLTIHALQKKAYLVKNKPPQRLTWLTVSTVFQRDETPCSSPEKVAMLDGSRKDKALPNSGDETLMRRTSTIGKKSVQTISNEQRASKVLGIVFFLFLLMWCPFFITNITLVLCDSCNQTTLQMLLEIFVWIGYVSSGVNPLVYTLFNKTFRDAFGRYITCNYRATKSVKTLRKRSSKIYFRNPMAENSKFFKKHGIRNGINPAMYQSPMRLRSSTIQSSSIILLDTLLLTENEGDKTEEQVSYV
T6 sequence (Q05940 whole entry): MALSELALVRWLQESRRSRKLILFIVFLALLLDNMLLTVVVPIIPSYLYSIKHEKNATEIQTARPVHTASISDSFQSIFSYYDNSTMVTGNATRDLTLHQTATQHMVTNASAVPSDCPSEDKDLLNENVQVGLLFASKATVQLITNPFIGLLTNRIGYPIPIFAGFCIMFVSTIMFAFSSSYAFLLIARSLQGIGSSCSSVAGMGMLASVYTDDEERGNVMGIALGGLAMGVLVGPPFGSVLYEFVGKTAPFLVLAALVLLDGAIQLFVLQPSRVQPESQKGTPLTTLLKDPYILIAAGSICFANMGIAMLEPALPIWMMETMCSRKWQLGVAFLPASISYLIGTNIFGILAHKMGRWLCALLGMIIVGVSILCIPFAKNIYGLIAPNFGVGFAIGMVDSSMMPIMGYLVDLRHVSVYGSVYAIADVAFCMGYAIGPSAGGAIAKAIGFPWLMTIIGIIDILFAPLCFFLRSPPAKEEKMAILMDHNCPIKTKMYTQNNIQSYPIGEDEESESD

SMILES: COc1cc2c3c(c1OC)-c1ccccc1C[C@H]3N(C)CC2 [nuciferine]
- Ki [1]: 0.077 µM
- Ki [2]: 0.041 µM
- Ki [3]: 0.268 µM
- Ki [4]: 1.39 µM
- Ki [5]: 1.39 µM
- Ki [6]: 2 µM
- Ki [7]: 7.15 µM
- Ki [8]: 1.66 µM
- Ki [9]: 10 µM
- EC50 [10]: 2.6 µM
- Function Type [10]: Partial agonist
- Emax ([10]; partial agonist efficacy, read-out: maximal response): 50%
- EC50 [11]: 0.15 µM
- Function Type [11]: Inverse agonist
- IC50 [11]: 0.15 µM
- effect on DA uptake in isolated vesicles [12]: no effect
- DOI-induced head-twitches ([13]; 1 mg/kg i.p., 15 min prior to 1.0 mg/kg DOI): no statistical effect
- DOI-induced head-twitches ([13]; 3 mg/kg i.p., 15 min prior to 1.0 mg/kg DOI, at 5, 10, 15 and 20 min): decreased head-twitches; also recorded: statistically significant (p<0.05) reductions in the numbers of head-twitches
- DOI-induced head-twitches ([13]; 3 mg/kg i.p., 30 min prior to DOI): statistically significant (p<0.05) reductions in the numbers of head-twitches
- DOI-induced head-twitches ([13]; 3 mg/kg i.p., 45 min prior to DOI): failed to show significant alterations in head-twitches
- DOI-induced head-twitches ([13]; 3 mg/kg i.p., 60 min prior to DOI): failed to show significant alterations in head-twitches
- DOI-induced head-twitches ([13]; 3 mg/kg s.c., 15 min prior to 1.0 mg/kg DOI, at 10, 15 and 20 min): attenuated DOI-induced head-twitches
- DOI-induced head-twitches ([13]; 10 mg/kg i.p., 15 min prior to 1.0 mg/kg DOI, at 5, 10, 15 and 20 min): decreased head-twitches
- drug lever responding ([14]; 10.0 mg/kg s.c., animals trained on 1.25 mg/kg clozapine): 80.63%
- ED50 ([14]; Mus musculus, sc, 95% CI 3.09–9.48 mg/kg): 5.42 mg/kg
- substitution for clozapine's discriminative cue ([14]; lower doses 0.1 mg/kg–3.0 mg/kg): failed to produce substitution
- PCP-disrupted PPI ([15]; 5 mg/kg i.p. before 6 mg/kg PCP): higher PPI than the PCP-vehicle groups
- PCP-disrupted PPI ([15]; 10 mg/kg i.p. before 6 mg/kg PCP): rescued the PCP-disrupted PPI
- PPI in the pharmacological model using amphetamine [16]: failed to normalize PPI
- crossing of the blood brain barrier [17]: shown to cross the blood brain barrier
- hyperlocomotor effect of amphetamine [18]: inhibits the hyperlocomotor effect of amphetamine
- catalepsy ([19]; 10.0 mg/kg, any of the time-points examined): did not produce catalepsy
- latency to movement ([19]; 30 min post-injection): 2.3 ± 2.3 s
- latency to movement ([19]; 60 min post-injection): 4.7 ± 2.6 s
- EC50 [20]: 0.0018 µM
